These molecules were tested on NCI-H1581 cells (assay: Cell proliferation assay on NCI-H1581 (Table 7)). Details: Homo sapiens, NCI-H1581, read-out: IC50(nM) value of compounds on NCI-H1581 cells.
Assay type: cell-based, human
Source text: Test method: adding the appropriate volume of whole medium and the cells was suspended.
In the case of COc1cc(OC)c(Cl)c(-c2cc3cnc(Nc4ccc(N5CCN6CCC[C@H]6C5)cc4)nc3n3cnnc23)c1 [Compound 25, (S)-6-(2-chloro-3,5-dimethoxyphenyl)-N-(4-(hexahydropyrrolo[1,2-a]pyrazin-2(1H)-yl)phenyl)-[1,2,4]triazolo[4′,3′:1,6]pyrido[2,3-d]pyrimidin-2-amine], the IC50 is reported as 1 to 10 nM.
In the case of COc1cc(OC)c(Cl)c(-c2cc3cnc(Nc4ccc(OCCN5CCCC5)cc4)nc3n3cnnc23)c1 [Compound 28, 6-(2-chloro-3,5-dimethoxyphenyl)-N-(4-(2-(pyrrolidin-1-yl)ethoxy)phenyl)-[1,2,4]triazolo[4′,3′:1,6]pyrido[2,3-d]pyrimidin-2-amine], the IC50 is reported as 2.9 nM.
In the case of COc1cc(OC)c(Cl)c(-c2cc3cnc(Nc4ccc(CN5CCOCC5)cc4)nc3n3cnnc23)c1 [Compound 45, 6-(2-chloro-3,5-dimethoxyphenyl)-N-(4-(morpholinomethyl)phenyl)-[1,2,4]triazolo[4′,3′:1,6]pyrido[2,3-d]pyrimidin-2-amine], the IC50 is reported as 0.9 nM.
COc1cc(OC)c(Cl)c(-c2cc3cnc(Nc4ccc(C(=O)N5C[C@@H](C)N[C@@H](C)C5)cc4)nc3n3cnnc23)c1 [Compound 59, (4-((6-(2-chloro-3,5-dimethoxyphenyl)-[1,2,4]triazolo[4′,3′:1,6]pyrido[2,3-d]pyrimidin-2-yl)amino)phenyl)((3 S,5R)-3,5-dimethylpiperazin-1-yl)methanone] showed an IC50 of 1.8 nM.

Same assay, conditions: Homo sapiens, NCI-H1581; CellTiter 96 AQueous (144 hrs) or CellTiter Glo (96 hrs); class symbols; read-out: IC50(nM) value of compounds on NCI-H1581 cells
COc1cc(OC)c(Cl)c(-c2cc3cnc(Nc4ccc(N5CCN(C6CCN(C)CC6)CC5)cc4)nc3n3cnnc23)c1 [Compound 22, 6-(2-chloro-3,5-dimethoxyphenyl)-N-(4-(4-(1-methylpiperidin-4-yl)piperazin-1-yl)phenyl)-[1,2,4]triazolo[4′,3′:1,6]pyrido[2,3-d]pyrimidin-2-amine] gave an IC50 of 1 to 10 nM.
COc1cc(OC)c(Cl)c(-c2cc3cnc(Nc4ccc(OCCN5CCOCC5)cc4)nc3n3cnnc23)c1 [Compound 33, 6-(2-chloro-3,5-dimethoxyphenyl)-N-(4-(2-morpholinoethoxy)phenyl)-[1,2,4]triazolo[4′,3′:1,6]pyrido[2,3-d]pyrimidin-2-amine] showed an IC50 of 1 to 10 nM.
Molecule COc1cc(OC)c(Cl)c(-c2cc3cnc(Nc4ccc(C5CCN(C)CC5)cc4)nc3n3cnnc23)c1 [Compound 37, 6-(2-chloro-3,5-dimethoxyphenyl)-N-(4-(1-methylpiperidin-4-yl)phenyl)-[1,2,4]triazolo[4′,3′:1,6]pyrido[2,3-d]pyrimidin-2-amine] has an IC50 of 1 to 10 nM.
With COc1cc(OC)c(Cl)c(-c2cc3cnc(Nc4cccc(N5CCN6CCC[C@@H]6C5)c4)nc3n3cnnc23)c1 [Compound 38, (R)-6-(2-chloro-3,5-dimethoxyphenyl)-N-(3-(hexahydropyrrolo[1,2-a]pyrazin-2(1H)-yl)phenyl)-[1,2,4]triazolo[4′,3′:1,6]pyrido[2,3-d]pyrimidin-2-amine] the IC50 was 1 to 10 nM.
Work on COc1cc(OC)c(Cl)c(-c2cc3cnc(Nc4ccc(N5CC(=O)N6CCC[C@@H]6C5)cc4)nc3n3cnnc23)c1 [Compound 40, (R)-2-(4-((6-(2-chloro-3,5-dimethoxyphenyl)-[1,2,4]triazolo[4′,3′:1,6]pyrido[2,3-d]pyrimidin-2-yl)amino)phenyl)hexahydropyrrolo[1,2-a]pyrazin-4(1H)-one] yielded an IC50 greater than 100 nM.
Work on CNC1CCN(c2ccc(Nc3ncc4cc(-c5cc(OC)cc(OC)c5Cl)c5nncn5c4n3)cc2)CC1 [Compound 49, 6-(2-chloro-3,5-dimethoxyphenyl)-N-(4-(4-(methylamino)piperidin-1-yl)phenyl)-[1,2,4]triazolo[4′,3′:1,6]pyrido[2,3-d]pyrimidin-2-amine] yielded an IC50 of less than 1 nM.
Work on COc1cc(OC)c(Cl)c(-c2cc3cnc(Nc4ccc(N5C[C@@H](C)N[C@@H](C)C5)c(OC)c4)nc3n3cnnc23)c1 [Compound 55, 6-(2-chloro-3,5-dimethoxyphenyl)-N-(4-((3 S,5R)-3,5-dimethylpiperazin-1-yl)-3-methoxyphenyl)-[1,2,4]triazolo[4′,3′:1,6]pyrido[2,3-d]pyrimidin-2-amine] yielded an IC50 of 1 to 10 nM.
